Laboratory results as given in paper PMC10447463, “Data-mining unveils structure–property–activity correlation of viral infectivity enhancing self-assembling peptides” (Nature Communications, 2023).
Where two headings read alike, the source gives them in different places.

Key:
[1] = Turbidity, derived count rate of scattered light; type: physicochemical; conditions: for Log Count Rate: log of derived count rate; for Count Rate / kcps: derived count rate of scattered light at 633 nm, 173°, from zeta-potential measurement, 0.1 mg/mL in 1 mM KCl after 1 d at 1 mg/mL in PBS, turbidity / microscopic aggregation, mean of triplicate
Procedure, shortened: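 One-day room-temperature aggregation at 1 mg/mL in PBS (pH 7.4) preceded measurement; samples then went into 1 mM KCl. Triplicates per sample, two independent experiments averaged.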

[2] = Zeta-potential measurement; type: physicochemical; conditions: for Zeta-pot. / mV: zeta potential of peptide, Fig S15 source data
Procedure, shortened: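 PBS pH 7.4, 1 mg/mL peptide (DMSO stock), 1 d RT aggregation; diluted in 1 mM KCl pre-read; mobility → zeta (Smoluchowski); n = 3, 2 expts averaged.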

[3] = derived count rate of scattered light, mean, std deviation in next column
[4] = derived count rate of scattered light, mean, std deviation in separate column
[5] = derived count rate of scattered light
[6] = category 1 or 0 from count rate, key not given
[7] = Log10 of derived count rate of scattered light (turbidity)
[8] = turbidity, Log10 of derived count rate of scattered light, Figure 3A source data
[9] = zeta-potential of peptide, source data of Figure 2C
[10] = zeta-potential of the peptide assemblies, mean, Figure 3A source data

Substance	Zeta Count Rate Category ([1]; category 1/0, no key printed)	Zeta Count Rate / kcps [1, 3]	Zeta Count Rate / kcps [1, 4]	Zeta category ( +1 = if > 4 mV;-1 = if < -4 mV; 0 = -4mV to 4 mV) [2]	Zeta Pot. / mV ([2]; mean, Std Zeta in next column)	Zeta Pot. / mV ([2]; mean, Std in separate column)	Zeta-pot. / mV [2]	Zeta Count Rate Category [1, 6]	Zeta category ( +1 = if > 4 mV;-1 = if < -4 mV; 0 = -4mV to 4 mV) ([2]; category from zeta potential)	also measured
CKFKFQFNMW [KB14]	1	4107 kcps	4107 kcps	1 (+1 = if > 4 mV)	18.4 mV	18.4 mV	18.4 mV	–	–	–
CKFKQFF [CK15]	–	2.567 kcps	2.567 kcps	1 (+1 = if > 4 mV)	11.56 mV	11.56 mV	11.56 mV	–	–	Log Count Rate ([1]; Fig S8 panels A, C, asymmetric log errors): 0.4099; Log Count Rate ([1]; Fig S8 panels B, D): 0.4099; Count Rate ([1]; Fig S8 panels B, D, turbidity, derived count rate of scattered light): 2.57; Zeta Count Rate Category ([1]; category 1 / 0, no key given): 0; Zeta Count Rate Category ([1]; category 1 or 0 derived from the count rate, key not given): 0; Zeta Count Rate / kcps [1, 5]: 2.567 kcps; Zeta Pot. / mV [2]: 11.56 mV; Zeta category ( +1 = if > 4 mV;-1 = if < -4 mV; 0 = -4mV to 4 mV) ([2]; category derived from the zeta potential): 1 (+1 = if > 4 mV)
CKIKIQINMW [TM86]	1	4915 kcps	4915 kcps	1 (+1 = if > 4 mV)	18.3 mV	18.3 mV	18.3 mV	1	1 (+1 = if > 4 mV)	–
CKIKIQINMWQ	–	–	–	–	–	–	–	–	–	Log10 Count Rate [1, 7]: 3.274; Count Rate / kcps [1]: 1881 kcps; Log10 Count Rate ([1]; log10 of derived count rate of scattered light (turbidity)): 3.274; Log10 Count Rate [1, 8]: 3.274; Zeta-Pot. ([2]; zeta potential of peptide assemblies): 13.87; Zeta-Potential / mV [2, 9]: 12.25 mV; Zeta-Potential / mV [2, 10]: 13.87 mV
CKYKYQY [KB2]	1	1061 kcps	–	0 (0 = -4mV to 4 mV)	1.49 mV	–	1.49 mV	–	–	–
CRFRVPF [CN8]	0	73.97 kcps	–	1 (+1 = if > 4 mV)	4.413 mV	–	4.413 mV	–	–	–
KAKAKAQA [TG15]	–	76.93 kcps	–	-1 (-1 = if < -4 mV)	-9.01 mV	–	-9.01 mV	0	-1 (-1 = if < -4 mV)	Zeta Count Rate Category ([1]; category 1 / 0, no key given): 0; Zeta Count Rate / kcps [1, 5]: 76.93 kcps; Zeta Pot. / mV [2]: -9.01 mV
KAKAQANM [TM152]	0	42.5 kcps	42.5 kcps	0 (0 = -4mV to 4 mV)	-2.62 mV	-2.62 mV	-2.62 mV	0	0 (0 = -4mV to 4 mV)	–
KFKFQFNMW	–	–	–	–	–	–	–	–	–	Log10 Count Rate [1, 7]: 2.785; Count Rate / kcps [1]: 610 kcps; Log10 Count Rate [1, 8]: 2.785; Log10 Count Rate ([1]; turbidity, log10 of derived count rate of scattered light): 2.785; Zeta-Pot. [2]: 22.6; Zeta-Potential / mV [2, 9]: 16.22 mV; Zeta-Potential / mV [2, 10]: 22.6 mV
KFKQFFNMWQ [JG5]	–	236.9 kcps	–	0 (0 = -4mV to 4 mV)	-3.43 mV	–	-3.43 mV	1	0 (0 = -4mV to 4 mV)	Zeta Count Rate Category ([1]; category 1 / 0, no key given): 1; Zeta Count Rate / kcps [1, 5]: 236.9 kcps; Zeta Pot. / mV [2]: -3.43 mV
KIKIQINMW [JGB1 /TM85]	–	239.6 kcps	239.6 kcps	1 (+1 = if > 4 mV)	19.7 mV	19.7 mV	19.7 mV	1	1 (+1 = if > 4 mV)	–
